Assay results from patent EP0908457B1, “3-(1,2-benzisothiazol- and isoxazol-5-Y1)-2,4(1H,3H)-pyrimidinedione or thione and 3-(1,2-benzisothiazol- and isoxazol-5-y1)-4(3H)-pyrimidinone or thione herbicidal agents” (BASF AKTIENGESELLSCHAFT, priority 1997, dated 1999).

How the values were obtained:
[1] = system: Echinochloa oryzoides (Ard.) Fritsch.; assay: Preemergence weed control under flooded paddy conditions, ECHORC (Watergrass (Calif.)); format: in vivo; settings: flooded paddy; for herbicidal effect rating, ECHORC: rated three to four weeks after treatment; for ECHORC: herbicidal effect rating 0-9, three to four weeks after treatment; on herbicidal effect rating, ECHORC: meaning of each grade not given here
Cyperus iria = assay: Preemergence weed control under flooded paddy conditions, CYPIR (Rice Flatsedge); format: in vivo; settings: flooded paddy; for herbicidal effect rating, CYPIR: rated three to four weeks after treatment; for CYPIR: herbicidal effect rating 0-9, three to four weeks after treatment; on herbicidal effect rating, CYPIR: meaning of each grade not given here
[2] = system: Cyperus serotinus, Rottb.; assay: Preemergence weed control under flooded paddy conditions, CYPSE (Flatsedge); format: in vivo; settings: for herbicidal effect rating, CYPSE: rated three to four weeks after treatment; on herbicidal effect rating, CYPSE: meaning of each grade not given here
[3] = system: Monochoria vaginalis, Presl.; assay: Preemergence weed control under flooded paddy conditions, MOOVA (Monochoria); format: in vivo; settings: flooded paddy; for herbicidal effect rating, MOOVA: rated three to four weeks after treatment; for MOOVA: herbicidal effect rating 0-9, three to four weeks after treatment; on herbicidal effect rating, MOOVA: meaning of each grade not given here
Sagittaria pygmaea, L. = assay: Preemergence weed control under flooded paddy conditions, SAGPY (Arrowhead (Pygmaea)); format: in vivo; settings: flooded paddy; for herbicidal effect rating, SAGPY: rated three to four weeks after treatment; for SAGPY: herbicidal effect rating 0-9, three to four weeks after treatment; on herbicidal effect rating, SAGPY: meaning of each grade not given here
[4] = system: Oryza sativa, (L.) Tebonnet; assay: Rice tolerance to post-transplant applications under flooded paddy conditions (Example 187), ORYSAT (Rice, Tebonnet); settings: for herbicidal effect rating ORYSAT / herbicidal effect rating, ORYSAT (rice tolerance): rated three to four weeks after treatment; for ORYSAT: herbicidal effect rating 0-9, three to four weeks after treatment; on herbicidal effect rating ORYSAT: meaning of each grade not given here
[5] = Rate 0.0320 kg/ha, preemergence weeds
[6] = Rate 0.0620 kg/ha, preemergence weeds
[7] = Rate 0.1250 kg/ha, preemergence weeds
[8] = Rate 0.2500 kg/ha, preemergence weeds
[9] = Rate 0.0320 kg/ha, preemergence
[10] = Rate 0.0620 kg/ha, preemergence
[11] = Rate 0.1250 kg/ha, preemergence
[12] = Rate 0.2500 kg/ha, preemergence
[13] = 0.0320 kg/ha, preemergence weeds
[14] = 0.0620 kg/ha, preemergence weeds
[15] = 0.1250 kg/ha, preemergence weeds
[16] = 0.2500 kg/ha, preemergence weeds

CC(=O)c1nsc2ccc(-n3c(=O)cc(C(F)(F)F)n(C)c3=O)cc12 [Example 307, 2,4(1H,3H)-Pyrimidinedione, 3-(3-acetyl-1,2-benzisothiazol-5-yl)-1-methyl-6-(trifluoromethyl)-]
herbicidal effect rating, ECHORC [1, 5]: 6.0 | herbicidal effect rating, ECHORC [1, 6]: 5.0 | herbicidal effect rating, ECHORC [1, 7]: 8.5 | herbicidal effect rating, ECHORC [1, 8]: 9.0 | herbicidal effect rating, CYPIR (Cyperus iria; [5]): 6.5 | herbicidal effect rating, CYPIR (Cyperus iria; [6]): 6.5 | herbicidal effect rating, CYPIR (Cyperus iria; [7]): 6.5 | herbicidal effect rating, CYPIR (Cyperus iria; [8]): 7.5 | herbicidal effect rating, CYPSE [2, 5]: 0.0 | herbicidal effect rating, CYPSE [2, 6]: 3.5 | herbicidal effect rating, CYPSE [2, 7]: 7.0 | herbicidal effect rating, CYPSE [2, 8]: 9.0 | herbicidal effect rating, MOOVA [3, 5]: 6.0 | herbicidal effect rating, MOOVA [3, 6]: 8.0 | herbicidal effect rating, MOOVA [3, 7]: 9.0 | herbicidal effect rating, MOOVA [3, 8]: 9.0 | herbicidal effect rating, SAGPY (Sagittaria pygmaea, L.; [5]): 0.0 | herbicidal effect rating, SAGPY (Sagittaria pygmaea, L.; [6]): 1.0 | herbicidal effect rating, SAGPY (Sagittaria pygmaea, L.; [7]): 6.5 | herbicidal effect rating, SAGPY (Sagittaria pygmaea, L.; [8]): 9.0 | herbicidal effect rating ORYSAT ([4]; Rate 0.0320 kg/ha): 5.0 | herbicidal effect rating ORYSAT ([4]; Rate 0.0620 kg/ha): 6.0 | herbicidal effect rating ORYSAT ([4]; Rate 0.1250 kg/ha): 8.5 | herbicidal effect rating ORYSAT ([4]; Rate 0.2500 kg/ha): 9.0

Cc1ccc(OCC(=O)N(C)O)c(-c2nsc3ccc(-n4c(=O)cc(C(F)(F)F)n(C)c4=O)cc23)c1 [Example 355, Acetohydroxamic acid, 2-{{2-{5-[3,6-dihydro-3-methyl-2,6-dioxo-4-(trifluoromethyl)-1(2H)pyrimidinyl]-1,2-benzisothiazol-3-yl}-p-tolyl}oxy}-N-methyl-]
herbicidal effect rating, ECHORC [1, 9]: 7.0 | herbicidal effect rating, ECHORC [1, 10]: 9.0 | herbicidal effect rating, ECHORC [1, 11]: 9.0 | herbicidal effect rating, ECHORC [1, 12]: 9.0 | herbicidal effect rating, CYPIR (Cyperus iria; [9]): 4.5 | herbicidal effect rating, CYPIR (Cyperus iria; [10]): 4.5 | herbicidal effect rating, CYPIR (Cyperus iria; [11]): 6.5 | herbicidal effect rating, CYPIR (Cyperus iria; [12]): 5.0 | herbicidal effect rating, CYPSE [2, 9]: 0.0 | herbicidal effect rating, CYPSE [2, 10]: 1.0 | herbicidal effect rating, CYPSE [2, 11]: 3.5 | herbicidal effect rating, CYPSE [2, 12]: 5.0 | herbicidal effect rating, MOOVA [3, 9]: 9.0 | herbicidal effect rating, MOOVA [3, 10]: 9.0 | herbicidal effect rating, MOOVA [3, 11]: 9.0 | herbicidal effect rating, MOOVA [3, 12]: 9.0 | herbicidal effect rating, SAGPY (Sagittaria pygmaea, L.; [9]): 2.0 | herbicidal effect rating, SAGPY (Sagittaria pygmaea, L.; [10]): 4.5 | herbicidal effect rating, SAGPY (Sagittaria pygmaea, L.; [11]): 4.5 | herbicidal effect rating, SAGPY (Sagittaria pygmaea, L.; [12]): 9.0 | herbicidal effect rating ORYSAT ([4]; Rate 0.0320 kg/ha): 2.5 | herbicidal effect rating ORYSAT ([4]; Rate 0.0620 kg/ha): 3.0 | herbicidal effect rating ORYSAT ([4]; Rate 0.1250 kg/ha): 5.5 | herbicidal effect rating ORYSAT ([4]; Rate 0.2500 kg/ha): 5.0

Cn1c(C(F)(F)F)cc(=O)n(-c2ccc3snc(C(=O)SCc4ccccc4)c3c2)c1=O [Example 421, 1,2-Benzisothiazole-3-thiocarboxylic acid, 5-[3,6-dihydro-3-methyl-2,6-dioxo-4-(trifluoromethyl)-1(2H)-pyrimidinyl]-, S-benzyl ester]
ECHORC [1, 13]: 5.0 | ECHORC [1, 14]: 5.0 | ECHORC [1, 15]: 7.0 | ECHORC [1, 16]: 9.0 | CYPIR (Cyperus iria; [13]): 2.0 | CYPIR (Cyperus iria; [14]): 6.0 | CYPIR (Cyperus iria; [15]): 8.0 | CYPIR (Cyperus iria; [16]): 9.0 | CYPSE ([2]; 0.2500 kg/ha, preemergence weeds, herbicidal effect rating 0-9, three to four weeks after treatment): 4.0 | MOOVA [3, 13]: 5.0 | MOOVA [3, 14]: 6.0 | MOOVA [3, 15]: 7.0 | MOOVA [3, 16]: 9.0 | SAGPY (Sagittaria pygmaea, L.; [13]): 0.0 | SAGPY (Sagittaria pygmaea, L.; [14]): 0.0 | SAGPY (Sagittaria pygmaea, L.; [15]): 0.0 | SAGPY (Sagittaria pygmaea, L.; [16]): 2.0 | ORYSAT ([4]; 0.0320 kg/ha): 0.0 | ORYSAT ([4]; 0.0620 kg/ha): 0.0 | ORYSAT ([4]; 0.1250 kg/ha): 0.0 | ORYSAT ([4]; 0.2500 kg/ha): 2.0

Cn1c(C(F)(F)F)cc(=O)n(-c2ccc3snc(C(C#N)=Cc4ccc(O)cc4)c3c2)c1=O [Example 600, 1,2-Benzisothiazole-3-acetonitrile, 5-[3,6-dihydro-3-methyl-2,6-dioxo-4-(trifluoromethyl)-1(2H)-pyrimidinyl]-alpha-(p-hydroxybenzylidene)-]
herbicidal effect rating, ECHORC [1, 9]: 0.0 | herbicidal effect rating, ECHORC [1, 10]: 0.0 | herbicidal effect rating, ECHORC [1, 11]: 0.0 | herbicidal effect rating, ECHORC [1, 12]: 2.0 | herbicidal effect rating, CYPIR (Cyperus iria; [9]): 0.0 | herbicidal effect rating, CYPIR (Cyperus iria; [10]): 0.0 | herbicidal effect rating, CYPIR (Cyperus iria; [11]): 0.0 | herbicidal effect rating, CYPIR (Cyperus iria; [12]): 2.0 | herbicidal effect rating, CYPSE [2, 9]: 0.0 | herbicidal effect rating, CYPSE [2, 10]: 0.0 | herbicidal effect rating, CYPSE [2, 12]: 0.0 | herbicidal effect rating, MOOVA [3, 9]: 6.0 | herbicidal effect rating, MOOVA [3, 10]: 6.0 | herbicidal effect rating, MOOVA [3, 11]: 7.0 | herbicidal effect rating, MOOVA [3, 12]: 7.0 | herbicidal effect rating, SAGPY (Sagittaria pygmaea, L.; [9]): 0.0 | herbicidal effect rating, SAGPY (Sagittaria pygmaea, L.; [10]): 0.0 | herbicidal effect rating, SAGPY (Sagittaria pygmaea, L.; [11]): 0.0 | herbicidal effect rating, SAGPY (Sagittaria pygmaea, L.; [12]): 0.0 | herbicidal effect rating ORYSAT ([4]; Rate 0.0320 kg/ha): 3.0 | herbicidal effect rating ORYSAT ([4]; Rate 0.0620 kg/ha): 3.0 | herbicidal effect rating ORYSAT ([4]; Rate 0.1250 kg/ha): 4.0 | herbicidal effect rating ORYSAT ([4]; Rate 0.2500 kg/ha): 4.0

COC(=O)COc1noc2ccc(-n3c(=O)cc(C(F)(F)F)n(C)c3=O)cc12 [Example 22, Methyl {{5-[3,6-dihydro-3-methyl-2,6-dioxo-4-(trifluoromethyl)-1(2H)-pyrimidinyl]-1,2-benzisoxazol-3-yl}oxy}acetate]
herbicidal effect rating, ECHORC ([1]; 0.0313 kg/ha, preemergence): 9.0 | herbicidal effect rating, ECHORC ([1]; 0.0625 kg/ha, preemergence): 9.0 | herbicidal effect rating, ECHORC ([1]; 0.1250 kg/ha, preemergence): 9.0 | herbicidal effect rating, ECHORC ([1]; 0.2500 kg/ha, preemergence): 9.0 | herbicidal effect rating, CYPIR (Cyperus iria; 0.0313 kg/ha, preemergence): 9.0 | herbicidal effect rating, CYPIR (Cyperus iria; 0.0625 kg/ha, preemergence): 9.0 | herbicidal effect rating, CYPIR (Cyperus iria; 0.1250 kg/ha, preemergence): 9.0 | herbicidal effect rating, CYPIR (Cyperus iria; 0.2500 kg/ha, preemergence): 9.0 | herbicidal effect rating, CYPSE ([2]; 0.0313 kg/ha, preemergence): 2.0 | herbicidal effect rating, CYPSE ([2]; 0.0625 kg/ha, preemergence): 7.0 | herbicidal effect rating, CYPSE ([2]; 0.1250 kg/ha, preemergence): 7.0 | herbicidal effect rating, CYPSE ([2]; 0.2500 kg/ha, preemergence): 9.0 | herbicidal effect rating, MOOVA ([3]; 0.0313 kg/ha, preemergence): 9.0 | herbicidal effect rating, MOOVA ([3]; 0.0625 kg/ha, preemergence): 9.0 | herbicidal effect rating, MOOVA ([3]; 0.1250 kg/ha, preemergence): 9.0 | herbicidal effect rating, MOOVA ([3]; 0.2500 kg/ha, preemergence): 9.0 | herbicidal effect rating, SAGPY (Sagittaria pygmaea, L.; 0.0313 kg/ha, preemergence): 0.0 | herbicidal effect rating, SAGPY (Sagittaria pygmaea, L.; 0.0625 kg/ha, preemergence): 2.0 | herbicidal effect rating, SAGPY (Sagittaria pygmaea, L.; 0.1250 kg/ha, preemergence): 4.0 | herbicidal effect rating, SAGPY (Sagittaria pygmaea, L.; 0.2500 kg/ha, preemergence): 9.0 | herbicidal effect rating, ORYSAT (rice tolerance) ([4]; 0.0313 kg/ha): 2.0 | herbicidal effect rating, ORYSAT (rice tolerance) ([4]; 0.0625 kg/ha): 2.0 | herbicidal effect rating, ORYSAT (rice tolerance) ([4]; 0.1250 kg/ha): 2.5 | herbicidal effect rating, ORYSAT (rice tolerance) ([4]; 0.2500 kg/ha): 2.5
